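Where inhibition never reached the appropriate level, the endpoint shown equals the highest concentration tested. Otherwise, values were interpolated linearly from a five-concentration, 48-hour dose response in 96-well plates. GI50 is the concentration that inhibits growth by half.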 Calls of active or inactive are those of the source. Cut-off read from the data, not from the text of the source: active = GI50 up to about 1.1 µM and inactive = higher.
Legend:
Test in all cases: NCI tumour cell line growth inhibition, 48 h
Malme-3M = test system: Malme-3M
T47D = test system: T47D
COLO 205 = test system: COLO 205
NCI-H460 = test system: NCI-H460
HT-29 = test system: HT-29
OVCAR-5 = test system: OVCAR-5
PC-3 = test system: PC-3
SK-MEL-5 = test system: SK-MEL-5
Hs-578T = test system: Hs-578T
MDA-MB-231 = test system: MDA-MB-231
UACC-62 = test system: UACC-62
EKVX = test system: EKVX
CCRF-CEM = test system: CCRF-CEM
SK-MEL-2 = test system: SK-MEL-2
SNB-19 = test system: SNB-19
OVCAR-8 = test system: OVCAR-8
NCI-H522 = test system: NCI-H522
A549 = test system: A549
SN12C = test system: SN12C
HCT-116 = test system: HCT-116

| Compound | GI50 (Malme-3M) | GI50 (T47D) | GI50 (COLO 205) | GI50 (NCI-H460) | GI50 (HT-29) | GI50 (OVCAR-5) | GI50 (PC-3) | GI50 (SK-MEL-5) | GI50 (Hs-578T) | GI50 (MDA-MB-231) | GI50 (UACC-62) | GI50 (EKVX) | GI50 (CCRF-CEM) | GI50 (SK-MEL-2) | GI50 (SNB-19) | GI50 (OVCAR-8) | GI50 (NCI-H522) | GI50 (A549) | GI50 (SN12C) | GI50 (HCT-116) |
| --- | --- | --- | --- | --- | --- | --- | --- | --- | --- | --- | --- | --- | --- | --- | --- | --- | --- | --- | --- | --- |
| CC(=O)Nc1ccc2c3c(cc(O)c2c1)N(C(=O)CCCCCC(=O)Nc1ccc2c4c(cc(O)c2c1)N(C(=O)OC(C)(C)C)CC4CCl)CC3CCl (stereo not given) | 2.17 µM (inactive) | 0.541 µM (active) | 1.99 µM (inactive) | 0.625 µM (active) | 3.15 µM (inactive) | 10 µM (inactive) | 2.99 µM (inactive) | 1.33 µM (inactive) | 3.94 µM (inactive) | 4.33 µM (inactive) | 1.39 µM (inactive) | 41.9 µM (inactive) | 0.0995 µM (active) | 1.76 µM (inactive) | 1.6 µM (inactive) | 2.35 µM (inactive) | 1.05 µM (active) | 12.3 µM (inactive) | 3.45 µM (inactive) | 1.67 µM (inactive) |
| COc1ccc(N2C(=O)C3c4[nH]c5c(C)cccc5c4C4CCC(C(C)(C)C)CC4C3C2=O)cc1 (stereo not given) | > 10 µM (inactive) | > 10 µM (inactive) | 5.97 µM (inactive) | 2.83 µM (inactive) | 2.32 µM (inactive) | > 10 µM (inactive) | 3.61 µM (inactive) | > 10 µM (inactive) | 8.17 µM (inactive) | > 10 µM (inactive) | > 10 µM (inactive) | 5.18 µM (inactive) | > 10 µM (inactive) | > 10 µM (inactive) | > 10 µM (inactive) | > 10 µM (inactive) | > 10 µM (inactive) | 7 µM (inactive) | 8.79 µM (inactive) | 5.01 µM (inactive) |
| CN(C)C(=S)/N=c1\ssc(=S)n1Cc1ccco1 | 3.79 µM (inactive) | 0.571 µM (active) | 2.21 µM (inactive) | 1.34 µM (inactive) | 0.998 µM (active) | 32 µM (inactive) | 0.509 µM (active) | 1.22 µM (inactive) | 0.31 µM (active) | 10.4 µM (inactive) | 0.879 µM (active) | 6.9 µM (inactive) | 0.975 µM (active) | 2.37 µM (inactive) | 2.9 µM (inactive) | 3.79 µM (inactive) | 0.249 µM (active) | 1.98 µM (inactive) | 4.21 µM (inactive) | 1.53 µM (inactive) |
| COc1cc2oc(-c3ccc(O)cc3O)c(CC=C(C)C)c(=O)c2c(O)c1/C=C/C(C)C [ARTOCARPIN] | 6.4 µM (inactive) | 7.1 µM (inactive) | 4.02 µM (inactive) | 3.21 µM (inactive) | 2.51 µM (inactive) | 6.64 µM (inactive) | 2.79 µM (inactive) | 1.69 µM (inactive) | 3.44 µM (inactive) | 2.55 µM (inactive) | 3.83 µM (inactive) | 4.2 µM (inactive) | 2.36 µM (inactive) | 6.41 µM (inactive) | 2.72 µM (inactive) | 1.75 µM (inactive) | 3.24 µM (inactive) | 2.75 µM (inactive) | 1.81 µM (inactive) | 2.1 µM (inactive) |
